Earlier results in patent US11576924B2, “Compounds for the prevention and treatment of diseases and the use thereof” (Galectin Sciences, LLC, priority 2017, dated 2023).

Legend:
[1] = target: galectin 3 (Homo sapiens, UniProt P17931)
[2] = tested on: lung fibrosis; conditions: pulmonary administration (intra-tracheal instillation or nebulizers)

Chain of galectin 3 (P17931 whole entry, species assumed): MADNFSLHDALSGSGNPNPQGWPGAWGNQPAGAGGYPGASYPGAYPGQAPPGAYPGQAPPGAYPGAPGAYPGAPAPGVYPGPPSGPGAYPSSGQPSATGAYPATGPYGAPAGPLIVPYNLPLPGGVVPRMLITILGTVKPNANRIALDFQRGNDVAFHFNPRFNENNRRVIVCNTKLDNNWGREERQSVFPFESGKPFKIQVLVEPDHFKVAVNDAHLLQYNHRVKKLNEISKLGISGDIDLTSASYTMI

## OC[C@H]1O[C@@H](S[C@@H]2O[C@H](CO)[C@H](O)[C@H](n3cc(-c4cccc(F)c4)nn3)[C@H]2O)[C@H](O)[C@@H](n2cc(-c3cccc(F)c3)nn2)[C@H]1O [TD-139]
[1]
  binding to galectin 3: bind to galectin 3
[2]
  efficacy in mouse model of lung fibrosis: effective in a mouse model of lung fibrosis
